From US20030166648A1, “Felbamate derived compounds” (priority 2002, published 2003)
Marks after values point to notes of the source that are not given here.

Key:
[1] = human; cited from earlier work
[2] = Minimal neurotoxicity (TOX), positional sense and gait and stance tests, rats p.o.; assay type: in vivo; details: for TOX, number of animals exhibiting toxic effects/total number tested: rat p.o., 30 mg/kg
Excerpt: (§1) The fluoro derivatives synthesized were submitted to the National Institute of Neurological Disorders and Stroke (NINDS) for evaluation in a standard panel of assays. Two convulsant tests (MES and scMET), and a toxicity screen (rotorod in mice, positional sense and gait in rats) were employed for evaluating the compounds activity as neuroprotecting agents. These testing procedures are described in detail in Molecular and Cellular Targets for Anti-epileptic Drugs, eds. […] The felbamate derivatives were evaluated for anticonvulsant activity following intraperitoneal (i.p.) administration in mice and oral administration in rats.
Rats are examined for behavioral toxicity by the positional sense test and a gait and stance test. […] In the gait and stance test, neurotoxicity is indicated by a circular or zigzag gait, ataxia, abnormal spread of the legs, abnormal posture, tremor hyperactivity, lack of exploratory behavior, somnolence, stupor or catalepsy. […]

[3] = Minimal neurotoxicity (TOX), rotorod test, mice i.p.; assay type: in vivo; details: for TOX, number of animals exhibiting toxic effects/total number tested: mice i.p.
Excerpt: as §1, with “rats. […]” for “rats.”

[4] = system: pentylenetetrazol-induced clonic seizures; assay: Subcutaneous Metrazol seizure test (scMET), mice i.p.; assay type: in vivo
Excerpt: (§2) The fluoro derivatives synthesized were submitted to the National Institute of Neurological Disorders and Stroke (NINDS) for evaluation in a standard panel of assays. Two convulsant tests (MES and scMET), and a toxicity screen (rotorod in mice, positional sense and gait in rats) were employed for evaluating the compounds activity as neuroprotecting agents. These testing procedures are described in detail in Molecular and Cellular Targets for Anti-epileptic Drugs, eds. G. Avanzini, G. Regesta, P. Tanganelli, M. Avoli, 1997, John Libbey & Company Ltd, pp 191-198. The felbamate derivatives were evaluated for anticonvulsant activity following intraperitoneal (i.p.) administration in mice and oral administration in rats.
The Subcutaneous (Metrazol) Seizure Test (scMET)
This is a model that primarily identifies compounds that raise seizure threshold. With some minor exceptions, the pharmacological profile of the scMET seizure model is consistent with the human condition. The scMET test utilizes a dose of pentylenetetrazol (85 mg/kg in Carworth Farms No. 1 mice and 70 mg/kg in Sprague-Dawley rats) that induces clonic seizures lasting for a period of at least five seconds in 97% (CD97) of animals tested. At the anticipated time of testing the convulsant is administered subcutaneously. The test compound is administered intraperitoneally in mice and orally in rats. Animals are observed over a 30 minute period. Absence of clonic spasms in the observed time period indicates a compound's ability to abolish the effect of pentylenetetrazol on seizure threshold.
(§3) For the MES and scMET tests the data is presented in the form of the number of animals protected by the administered compound/total number of animals tested. […] Qualitative data was obtained for fluoro felbamate 12 (Tables 1 and 2A), fluoro monocarbamate felbamate 13 (Tables 1 and 2B), and fluorodioxo 16 (Tables 1 and 2C) and for cyclic felbamate 21 (Tables 5 and 6B) and cyclic monocarbamate 22 (Tables 5 and 6A). More extensive quantitative data was also obtained for fluoro felbamate 12 in mice (Table 3) and rats (Table 4).

[5] = system: MES-induced seizure spread; assay: Maximal electroshock seizure (MES) test, rats p.o.; assay type: in vivo; details: for anti-seizure activity in rats (in words): rat models; for MES, number of animals protected/total number tested: rat p.o.
Excerpt: as §2
(§4) The Maximal Electroshock Seizure (MES)
(§5) The MES test is a model for generalized tonic-clonic seizures and is used to identify compounds which prevent seizure spread. The behavioral and electrographic seizures generated in this model are consistent with the human disorder. In the MES test, an electrical stimulus of 0.2 s in duration (50 mA in mice and 150 mA in rat at 60 Hz) was delivered via corneal electrodes primed with an electrolyte solution containing an anesthetic agent. Mice were tested at 30 minutes and 4 hours following doses of 30, 100 and 300 mg/kg of test compound. Rats were tested at time intervals between 0.25 and 4 hours following a standard oral dose of 30 mg/kg. Abolition of the hindlimb tonic extensor component indicates the test compound's ability to inhibit MES-induced seizure spread.
as §3

[6] = system: MES-induced seizure spread; assay: Maximal electroshock seizure (MES) test, mice i.p.; assay type: in vivo; details: for MES, number of animals protected/total number tested: mice i.p.
Excerpt: as §2, §4, §5, §3

[7] = system: focal seizures of hippocampal kindled rats; assay: Hippocampal kindling model (kindled rats), i.p.; assay type: in vivo, Sprague-Dawley rats; details: 100 mg/kg
Excerpt: The Hippocampal Kindling Model
The hippocampal kindling model can be used to evaluate a compound's ability to affect both the expression and acquisition of focal seizures. The hippocampal kindling paradigm as described by Lothman and Williamson (Lothman, 1994) allows the temporal effects of a drug to be evaluated in a single animal. This procedure requires the surgical placement of bipolar electrodes in the ventral hippocampus of adult male Sprague-Dawley rats. Stage five behavioral seizures are produced by using a stimulus consisting of a 50 Hz, 10 s train of 1 ms biphasic 200 uA pulses delivered every 30 min for 6 hours (12 stimuli per day) on alternating days for a total of 60 stimulations (five stimulus days). Prior to evaluating a candidate's anticonvulsant activity, a drug free control period consisting of supramaximal stimulations are recorded to verify the stability of a stage five generalized seizure.
A single dose of the candidate compound is then administered intraperitoneally (i.p.), 15 min following the last control stimulation. The anticonvulsant activity of the drug is assessed every 30 min for three to four hours starting 15 min after administering the test material. After each stimulation, individual Racine seizure scores and afterdischarge durations are recorded. Rats are used again in drug trials after four to five drug- and stimulus-free days.

[8] = Toxicity, oral administration to mice; assay type: in vivo; details: doses up to 218 mg/kg
Description: Toxicity induced by a compound is detected in mice using the standardized rotorod test described by Dunham & Miya (1957). Untreated control mice, when placed on a 6 r.p.m. rotation rod, can maintain their equilibrium for a prolonged period of time.
Toxicity across time doe not occur until dosages of 300 mg/kg. […] Quantitative results obtained for fluoro felbamate 12 in mice indicated a MES ED50 of approximately 20 mg/kg with a safety ratio of at least five (see Table 3). Results obtained for oral administration of fluoro felbamate 12 to rats indicated a MES ED50 of about 3 mg/kg with no toxicity at doses up to 500 mg/kg.

seizures = assay: NINDS anticonvulsant panel (MES, scMET), overall statements; assay type: in vivo; details: for anti-seizure activity (in words): overall statement
Excerpt: as §2, §3

NC(=O)CC(C(=O)O)c1ccccc1 (stereo not shown) [acid carbamate 4, 3-carbamoyl-2-phenylpropionic acid]
fraction of a felbamate dose found as acid carbamate [1]: ~12%

NC(=O)OCC1(c2ccccc2)COC(=O)N1 (stereo not shown) [cyclic felbamate]
TOX, number of animals exhibiting toxic effects/total number tested ([2]; 0.25 h): 0/4 | TOX, number of animals exhibiting toxic effects/total number tested ([2]; 0.5 h): 0/4 | TOX, number of animals exhibiting toxic effects/total number tested ([2]; 1.0 h): 0/4 | TOX, number of animals exhibiting toxic effects/total number tested ([2]; 2.0 h): 0/4 | TOX, number of animals exhibiting toxic effects/total number tested ([2]; 4.0 h): 0/4 | TOX, number of animals exhibiting toxic effects/total number tested ([3]; 30 mg/kg, 0.5 h): 0/4 | TOX, number of animals exhibiting toxic effects/total number tested ([3]; 30 mg/kg, 4.0 h): 0/2 | TOX, number of animals exhibiting toxic effects/total number tested ([3]; 100 mg/kg, 0.5 h): 0/8 | TOX, number of animals exhibiting toxic effects/total number tested ([3]; 100 mg/kg, 4.0 h): 0/4 | TOX, number of animals exhibiting toxic effects/total number tested ([3]; 300 mg/kg, 0.5 h): 0/4 | TOX, number of animals exhibiting toxic effects/total number tested ([3]; 300 mg/kg, 4.0 h): 0/2 | ScMET, number of animals protected/total number tested ([4]; 30 mg/kg, 0.5 h): 0/1 | ScMET, number of animals protected/total number tested ([4]; 30 mg/kg, 4.0 h): 0/1 | ScMET, number of animals protected/total number tested ([4]; 100 mg/kg, 0.5 h): 0/1 | ScMET, number of animals protected/total number tested ([4]; 100 mg/kg, 4.0 h): 0/1 | ScMET, number of animals protected/total number tested ([4]; 300 mg/kg, 0.5 h): 0/1 | ScMET, number of animals protected/total number tested ([4]; 300 mg/kg, 4.0 h): 0/1 | anti-seizure activity in rats (in words) [5]: potent activity | MES, number of animals protected/total number tested ([5]; 30 mg/kg, 0.25 h): 2/4 | MES, number of animals protected/total number tested ([5]; 30 mg/kg, 0.5 h): 2/4 | MES, number of animals protected/total number tested ([5]; 30 mg/kg, 1.0 h): 3/4 | MES, number of animals protected/total number tested ([5]; 30 mg/kg, 2.0 h): 0/4 | MES, number of animals protected/total number tested ([5]; 30 mg/kg, 4.0 h): 3/4 | MES, number of animals protected/total number tested ([6]; 30 mg/kg, 0.5 h): 0/1 | MES, number of animals protected/total number tested ([6]; 30 mg/kg, 4.0 h): 0/1 | MES, number of animals protected/total number tested ([6]; 100 mg/kg, 0.5 h): 0/3 | MES, number of animals protected/total number tested ([6]; 100 mg/kg, 4.0 h): 0/3 | MES, number of animals protected/total number tested ([6]; 300 mg/kg, 0.5 h): 0/1 | MES, number of animals protected/total number tested ([6]; 300 mg/kg, 4.0 h): 0/1

O=C1NC(=O)C(F)(c2ccccc2)CO1 (stereo not shown) [fluoro dioxo, 5-Fluoro-5-phenyl-1,3-oxazinane2,4-dione]
TOX, number of animals exhibiting toxic effects/total number tested ([2]; 0.25 h): 0/4 | TOX, number of animals exhibiting toxic effects/total number tested ([2]; 0.5 h): 0/4 | TOX, number of animals exhibiting toxic effects/total number tested ([2]; 1.0 h): 0/4 | TOX, number of animals exhibiting toxic effects/total number tested ([2]; 2.0 h): 0/4 | TOX, number of animals exhibiting toxic effects/total number tested ([2]; 4.0 h): 0/4 | TOX, number of animals exhibiting toxic effects/total number tested ([3]; 30 mg/kg, 0.5 h): 0/4 | TOX, number of animals exhibiting toxic effects/total number tested ([3]; 30 mg/kg, 4.0 h): 0/2 | TOX, number of animals exhibiting toxic effects/total number tested ([3]; 100 mg/kg, 0.5 h): 0/8 | TOX, number of animals exhibiting toxic effects/total number tested ([3]; 100 mg/kg, 4.0 h): 0/4 | TOX, number of animals exhibiting toxic effects/total number tested ([3]; 300 mg/kg, 0.5 h): 1/4 | TOX, number of animals exhibiting toxic effects/total number tested ([3]; 300 mg/kg, 4.0 h): 0/2 | anti-seizure activity in rats (in words) [5]: strong anti-seizure activity | anti-seizure activity in mice (in words) ([6]; mice, MES and scMET (Table 1)): inactive

NC(=O)OCC(F)(COC(N)=O)c1ccccc1 [fluoro felbamate, 2-Fluoro-2-phenyl-1,3-propanediol dicarbamate]
effect on afterdischarge duration (in words) [7]: corresponding decrease in afterdischarge duration | effect on seizure score (in words) [7]: significant drop in seizure score | Number Protected / Number Tested ([7]; Dose Responses, i.p.): 7/8^a | toxicity ([2]; oral administration to rats, doses up to 500 mg/kg): no toxicity | TOX, number of animals exhibiting toxic effects/total number tested ([2]; 0.25 h): 0/4 | TOX, number of animals exhibiting toxic effects/total number tested ([2]; 0.5 h): 0/4 | TOX, number of animals exhibiting toxic effects/total number tested ([2]; 1.0 h): 0/4 | TOX, number of animals exhibiting toxic effects/total number tested ([2]; 2.0 h): 0/4 | TOX, number of animals exhibiting toxic effects/total number tested ([2]; 4.0 h): 1/4 | TOX, number of animals exhibiting toxic effects/total number tested ([3]; 3 mg/kg, 0.5 h): 0/4 | TOX, number of animals exhibiting toxic effects/total number tested ([3]; 3 mg/kg, 4.0 h): 0/4 | TOX, number of animals exhibiting toxic effects/total number tested ([3]; 10 mg/kg, 0.5 h): 0/4 | TOX, number of animals exhibiting toxic effects/total number tested ([3]; 10 mg/kg, 4.0 h): 0/4 | TOX, number of animals exhibiting toxic effects/total number tested ([3]; 30 mg/kg, 0.5 h): 1/4 | TOX, number of animals exhibiting toxic effects/total number tested ([3]; 30 mg/kg, 4.0 h): 0/2 | TOX, number of animals exhibiting toxic effects/total number tested ([3]; 100 mg/kg, 0.5 h): 4/8 | TOX, number of animals exhibiting toxic effects/total number tested ([3]; 100 mg/kg, 4.0 h): 0/4 | TOX, number of animals exhibiting toxic effects/total number tested ([3]; 300 mg/kg, 0.5 h): 4/4 | TOX, number of animals exhibiting toxic effects/total number tested ([3]; 300 mg/kg, 4.0 h): 2/2 | safety ratio ([3]; mice, relative to MES ED50): at least five | toxicity [8]: no toxicity | MES ED50 ([5]; rat, p.o.): 3.0 mg/kg | MES protection (in words) ([5]; rats p.o., 30 mg/kg, over several timepoints): full protection | MES protection (in words) ([6]; mice, 30 mg/kg, at both 30 minutes and 4 hours): MES protective effects | anti-seizure activity (in words) (seizures): show anti-seizure activity | activity relative to felbamate (times more active) (seizures; test not specified): 5-10 times

NC(=O)OCC(F)(CO)c1ccccc1 (stereo not shown) [fluoro monocarbamate felbamate, 2-Fluoro-2-phenyl-1,3-propanediol monocarbamate]
TOX, number of animals exhibiting toxic effects/total number tested ([2]; 0.25 h): 0/4 | TOX, number of animals exhibiting toxic effects/total number tested ([2]; 0.5 h): 0/4 | TOX, number of animals exhibiting toxic effects/total number tested ([2]; 1.0 h): 0/4 | TOX, number of animals exhibiting toxic effects/total number tested ([2]; 2.0 h): 0/4 | TOX, number of animals exhibiting toxic effects/total number tested ([2]; 4.0 h): 0/4 | TOX, number of animals exhibiting toxic effects/total number tested ([3]; 30 mg/kg, 0.5 h): 0/4 | TOX, number of animals exhibiting toxic effects/total number tested ([3]; 30 mg/kg, 4.0 h): 0/2 | TOX, number of animals exhibiting toxic effects/total number tested ([3]; 100 mg/kg, 0.5 h): 3/8 | TOX, number of animals exhibiting toxic effects/total number tested ([3]; 100 mg/kg, 4.0 h): 0/4 | TOX, number of animals exhibiting toxic effects/total number tested ([3]; 300 mg/kg, 0.5 h): 2/4 | TOX, number of animals exhibiting toxic effects/total number tested ([3]; 300 mg/kg, 4.0 h): 0/2 | MES protection (in words) ([6]; mice, 100 mg/kg): moderate MES protection | anti-seizure activity (in words) (seizures): show anti-seizure activity
